The results in this text go back to US9790201B2, “Piperidine and azepine derivatives as prokineticin receptor modulators” (TAKEDA PHARMACEUTICAL COMPANY LIMITED, priority 2013, dated 2017).

Each structure is given as a SMILES string. Structures can show the parent of a compound that is named as a salt.

The target in the assay is human PKR1 receptors (Homo sapiens (Human), UniProt Q8TCW9). Nature of the assay: PKR1 antagonist assay: block of PK1-mediated intracellular calcium release (FLIPR Tetra). The class given is cell-based. The conditions noted are these: RBL2H3 cells expressing human PKR1; stimulation with PK1 at EC80; calcium fluorescence. The method, then: Prokineticin receptor 1 (PKR1) antagonists may be functionally assessed by measurement of change in intracellular calcium levels induced by Gq mediated increase in inositol triphosphate (IP3) levels. The ability of a compound to block the intracellular release of calcium mediated by PK1 in RBL2H3 cells expressing human PKR1 receptors is determined as a measure of the compound's antagonist activity in vitro.
human PKR1 receptors, sequence (Q8TCW9 whole entry): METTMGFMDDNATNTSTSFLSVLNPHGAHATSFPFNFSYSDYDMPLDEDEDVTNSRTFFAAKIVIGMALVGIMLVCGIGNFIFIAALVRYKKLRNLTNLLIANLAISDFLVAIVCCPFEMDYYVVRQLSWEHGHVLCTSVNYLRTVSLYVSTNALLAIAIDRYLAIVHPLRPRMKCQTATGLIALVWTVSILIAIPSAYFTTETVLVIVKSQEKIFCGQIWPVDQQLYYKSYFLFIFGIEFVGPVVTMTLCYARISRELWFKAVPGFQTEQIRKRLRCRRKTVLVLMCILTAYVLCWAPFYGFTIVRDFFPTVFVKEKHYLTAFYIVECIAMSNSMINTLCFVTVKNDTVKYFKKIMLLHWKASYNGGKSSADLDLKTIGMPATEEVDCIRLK
Approximately 10,000 cells per assay well are seeded in normal culture medium in a 384 well plate (Corning). Twenty-four hours after seeding, the cells are loaded with a calcium sensitive fluorescent dye by replacing the culture medium with assay buffer (1× Hanks buffered saline, 25 mM HEPES, 0.1% w/v fatty acid free BSA (bovine serum albumin), pH 7.4) containing 1 mM probenecid and 1× Calcium 5 Reagent (Molecular Devices). Cells are incubated at 37° C. for 1 hour to allow for dye uptake.
To test for antagonist activity, test compounds at a final concentration range between 0.32 nM-10 μM (diluted in assay buffer) are added to the assay wells and allowed to incubate for 10 minutes prior to stimulation with PK1. After incubation with test compounds the assay plate is placed in a FLIPR Tetra (Molecular Devices) and PK1 (diluted in assay buffer) is added at the determined EC80 concentration (final). Ligand-dependent changes in intracellular calcium levels are determined by measuring changes in fluorescence of the dye at […] following excitation at 485 nm.

In general, IC50 refers to the midpoint of a concentration-inhibition curve. Consider `CN(C)c1cc(C(=O)N2CCCC(c3ccccc3Cl)C2)ccn1` (stereo not shown) [Example 46, 4-{[3-(2-Chlorophenyl)piperidin-1-yl]carbonyl}-N,N-dimethylpyridin-2-amine], for which the IC50 was 7790 nM.
For the molecule `Cc1cc(C(=O)N2CCCC(c3ccc(Cl)cc3)C2)cc(C)n1` (stereo not shown) [Example 28, 4-{[3-(4-Chlorophenyl)piperidin-1-yl]carbonyl}-2,6-dimethylpyridine], the IC50 worked out at 1330 nM.
To `CNc1cc(C(=O)N2CCCC(c3ccc(Cl)cc3C(F)(F)F)C2)cnn1` (stereo not shown) [Example 76, 5-({3-[4-Chloro-2-(trifluoromethyl)phenyl]piperidin-1-yl}carbonyl)-N-methylpyridazin-3-amine] belongs 80 nM.
Next, `O=C(c1cnnc(N2CCC2)c1)N1CCCC(c2ccc(Cl)cc2C(F)(F)F)C1` (stereo not shown) [Example 77, 3-(Azetidin-1-yl)-5-({3-[4-chloro-2-(trifluoromethyl)phenyl]piperidin-1-yl}carbonyl)pyridazine]: 730 nM; `Cc1ccc(C2CCCN(C(=O)c3ccnc(N4CCCC4)c3)C2)cc1` (stereo not shown) [Example 35, 4-{[3-(4-Methylphenyl)piperidin-1-yl]carbonyl}-2-(pyrrolidin-1-yl)pyridine]: 8820 nM.
To `CNc1cc(C(=O)N2CCCC(c3ccc(Cl)cc3)C2)ccn1` (stereo not shown) [Example 27, 4-{[3-(4-Chlorophenyl)piperidin-1-yl]carbonyl}-N-methylpyridin-2-amine] belongs 130 nM.
As for `COc1ccc(C2CCCN(C(=O)c3cnnc(N(C)C)c3)C2)c(C)c1` (stereo not shown) [Example 80, 5-{[3-(4-Methoxy-2-methylphenyl)piperidin-1-yl]carbonyl}-N,N-dimethylpyridazin-3-amine], the IC50 worked out at 160 nM.
Next, `CN(C)c1cc(C(=O)N2CCCC(c3ccccc3F)C2)ccn1` (stereo not shown) [Example 1, 4-{[3-(2-Fluorophenyl)piperidin-1-yl]carbonyl}-N,N-dimethylpyridin-2-amine]: 1820 nM; `CN(C)c1cc(C(=O)N2C=C(c3ccc(Cl)cc3)CCC2)ccn1` [Example 104, 4-{[5-(4-Chlorophenyl)-1,2,3,4-tetrahydropyridin-1-yl]carbonyl}-N,N-dimethylpyridin-2-amine]: 420 nM.
On to `CCc1cc(C(=O)N2CCCC(c3ccc(Cl)cc3)C2)ccn1` (stereo not shown) [Example 52, 4-{[3-(4-Chlorophenyl)piperidin-1-yl]carbonyl}-2-ethylpyridine], for which the IC50 was 510 nM.
Next, `Cc1nn(C)cc1C(=O)N1CCCC(c2ccc(Cl)cc2)C1` (stereo not shown) [Example 88, 3-(4-Chlorophenyl)-1-[(1,3-dimethyl-1H-pyrazol-4-yl)carbonyl]piperidine]: 1820 nM; `CN(C)c1cc(C(=O)N2CCCC(c3ccc(Cl)cc3)C2)cnn1` (stereo not shown) [Example 69, 5-{[3-(4-Chlorophenyl)piperidin-1-yl]carbonyl}-N,N-dimethylpyridazin-3-amine]: 810 nM.
For the molecule `CC(C)n1cc(C(=O)N2CCCC(c3ccc(Cl)cc3C(F)(F)F)C2)cn1` (stereo not shown) [Example 99, 3-[4-Chloro-2-(trifluoromethyl)phenyl]-1-{[1-(propan-2-yl)-1H-pyrazol-4-yl]carbonyl}piperidine], the IC50 was found to be 330 nM.
To `CCOc1cc(Cl)ccc1C1CCCN(C(=O)c2cnnc(NC)c2)C1` (stereo not shown) [Example 83, 5-{[3-(4-Chloro-2-ethoxyphenyl)piperidin-1-yl]carbonyl}-N-methylpyridazin-3-amine] belongs 170 nM.
To `CCc1cc(C(=O)N2CCCC(c3ccccc3C(F)(F)F)C2)ccn1` (stereo not shown) [Example 58, 2-Ethyl-4-({3-[2-(trifluoromethyl)phenyl]piperidin-1-yl}carbonyl)pyridine] belongs 820 nM; to `Cc1ccc(C2CCCN(C(=O)c3ccnc(N4CCC4)c3)C2)cc1` (stereo not shown) [Example 21, 2-(Azetidin-1-yl)-4-{[3-(4-methylphenyl)piperidin-1-yl]carbonyl}pyridine], 1200 nM.
To `CNc1cc(C(=O)N2CCCC(c3ccccc3OC)C2)ccn1` (stereo not shown) [Example 56, 4-{[3-(2-Methoxyphenyl)piperidin-1-yl]carbonyl}-N-methylpyridin-2-amine] belongs 440 nM; to `CN(C)c1cc(C(=O)N2CCCC(c3ccc(Cl)cc3C(F)(F)F)C2)cnn1` (stereo not shown) [Example 75, 5-({3-[4-Chloro-2-(trifluoromethyl)phenyl]piperidin-1-yl}carbonyl)-N,N-dimethylpyridazin-3-amine], 110 nM; to `CN(C)c1cc(C(=O)N2CCCC(c3ccc(Cl)cc3F)C2)ccn1` (stereo not shown) [Example 25, 4-{[3-(4-Chloro-2-fluorophenyl)piperidin-1-yl]carbonyl}-N,N-dimethylpyridin-2-amine], 530 nM.
For `CNc1cc(C(=O)N2CCC[C@H](c3ccc(Cl)cc3C)C2)cnn1` [Example 72, 5-{[(3R)-3-(4-Chloro-2-methylphenyl)piperidin-1-yl]carbonyl}-N-methylpyridazin-3-amine], the IC50 turned out to be 30 nM.
To `Cn1cc(C(=O)N2CCCC(c3ccc(Cl)cc3C(F)(F)F)C2)cn1` (stereo not shown) [Example 97, 3-[4-Chloro-2-(trifluoromethyl)phenyl]-1-[(1-methyl-1H-pyrazol-4-yl)carbonyl]piperidine] belongs 100 nM.
To `Cc1cc(Cl)ccc1C1CCCN(C(=O)c2ccnc(N3CCC3)c2)C1` (stereo not shown) [Example 33, 2-(Azetidin-1-yl)-4-{[3-(4-chloro-2-methylphenyl)piperidin-1-yl]carbonyl}pyridine] belongs 90 nM; to `Cc1cc(Cl)ccc1C1CCCN(C(=O)c2cnn(C)c2)C1` (stereo not shown) [Example 94, 3-(4-Chloro-2-methylphenyl)-1-[(1-methyl-1H-pyrazol-4-yl)carbonyl]piperidine], 170 nM.
Consider `CNc1cc(C(=O)N2CCCCC(c3ccc(Cl)cc3)C2)ccn1` (stereo not shown) [Example 111, 4-{[3-(4-Chlorophenyl)azepan-1-yl]carbonyl}-N-methylpyridin-2-amine], for which the IC50 was determined as 430 nM.
To `Cc1cc(C(=O)N2CCCC(c3ccc(Cl)cc3C)C2)ccn1` (stereo not shown) [Example 5, 4-{[3-(4-Chloro-2-methylphenyl)piperidin-1-yl]carbonyl}-2-methylpyridine] belongs 450 nM.
To `CCOc1cc(C(=O)N2CCCC(c3ccc(Cl)cc3)C2)ccn1` (stereo not shown) [Example 42, 4-{[3-(4-Chlorophenyl)piperidin-1-yl]carbonyl}-2-ethoxypyridine] belongs 8350 nM; to `O=C(c1ccnc(C2CC2)c1)N1CCCC(c2ccc(Cl)cc2)C1` (stereo not shown) [Example 3, 4-{[3-(4-Chlorophenyl)piperidin-1-yl]carbonyl}-2-cyclopropylpyridine], 1740 nM; to `Cc1ccc(C2CCCN(C(=O)c3ccnc(N4CC(O)C4)c3)C2)cc1` (stereo not shown) [Example 41, 1-(4-{[3-(4-Methylphenyl)piperidin-1-yl]carbonyl}pyridin-2-yl)azetidin-3-ol], 8460 nM.
Next, `CN(C)c1cc(C(=O)N2CCCC(c3ccccc3C(F)(F)F)C2)ccn1` (stereo not shown) [Example 45, N,N-Dimethyl-4-({3-[2-(trifluoromethyl)phenyl]piperidin-1-yl}carbonyl)pyridin-2-amine]: 220 nM; `CNc1cc(C(=O)N2CCCC(c3ccc(OC)cc3C(F)(F)F)C2)ccn1` (stereo not shown) [Example 64, 4-({3-[4-Methoxy-2-(trifluoromethyl)phenyl]piperidin-1-yl}carbonyl)-N-methylpyridin-2-amine formate]: 50 nM; `CN(C)c1cc(C(=O)N2CCCC(c3ccccc3OC(F)F)C2)ccn1` (stereo not shown) [Example 66, 4-({3-[2-(Difluoromethoxy)phenyl]piperidin-1-yl}carbonyl)-N,N-dimethylpyridin-2-amine]: 700 nM.
As for `COc1cccc([C@@H]2CCCN(C(=O)c3ccnc(N(C)C)c3)C2)c1` [Example 36, 4-{[(3S)-3-(3-Methoxyphenyl)piperidin-1-yl]carbonyl}-N,N-dimethylpyridin-2-amine], the IC50 is 5510 nM.
Next, `Cc1cc(Cl)ccc1C1CCCN(C(=O)c2ccnc(N(C)C)c2)C1` (stereo not shown) [Example 24, 4-{[3-(4-Chloro-2-methylphenyl)piperidin-1-yl]carbonyl}-N,N-dimethylpyridin-2-amine]: 30 nM.
In the case of `Cn1cc(C(=O)N2CCCC(c3ccc(Cl)cc3C(F)(F)F)C2)c(N)n1` (single isomer, unassigned) [Example 119, 4-({3-[4-Chloro-2-(trifluoromethyl)phenyl]piperidin-1-yl}carbonyl)-1-methyl-1H-pyrazol-3-amine], the IC50 was determined as 330 nM.
To `CN(C)c1cc(C(=O)N2CCCCC(c3ccc(Cl)cc3)C2)ccn1` (stereo not shown) [Example 108, 4-{[3-(4-Chlorophenyl)azepan-1-yl]carbonyl}-N,N-dimethylpyridin-2-amine] belongs 3230 nM.
To `COc1cc(C(=O)N2CCCC(c3ccc(Cl)cc3C(F)(F)F)C2)ccn1` (stereo not shown) [Example 9, 4-({3-[4-Chloro-2-(trifluoromethyl)phenyl]piperidin-1-yl}carbonyl)-2-methoxypyridine] belongs 1370 nM.
For `CC(C)n1cc(C(=O)N2CCCC(c3ccc(Cl)cc3)C2)cn1` (stereo not shown) [Example 91, 3-(4-Chlorophenyl)-1-{[1-(propan-2-yl)-1H-pyrazol-4-yl]carbonyl}piperidine], the IC50 worked out at 960 nM.
